According to publication PMC3489612, “Exploring flubendazole formulations for use in sheep. Pharmacokinetic evaluation of a cyclodextrin-based solution” (BMC Veterinary Research, 2012):
Converted amounts (≈) assume the structure as drawn.

What was measured:
[1] = In vitro aqueous solubility of BZD compounds with or without HPßCD (10%); details: for solubility at 2 weeks: 25 °C, thermodynamic from solid; for HPßCD-induced solubility increasing effect: pH 1.2, with versus without HPßCD (10%); for aqueous solubility: 25°C, n = 6, mean ± SD
Procedure: BZD solubilities were determined in aqueous solutions at pH values of 1.2 (HCl/KCl) and 7.4 (KH2PO4) with or without HPßCD (10%). An excess amount of ABZ, ABZSO, MBZ, OFZ or FLBZ was suspended in glass tubes containing 10 mL of each medium. The tubes were placed in a water bath at 25°C with a constant shaken rate of 100 strokes/min for two weeks (Yamato BT-31, Yamato Scientific Co., Japan). […] The supernatants were collected and filtered through a 0.2 μm filter (Whatman Inc., NJ, USA). After filtration, samples were analyzed for drug quantification by HPLC following the method described below.
Experimental and fortified samples of plasma and abomasal fluid were analyzed for FLBZ, R-FLBZ, H-FLBZ and the internal standard (OBZ) by HPLC following the method described by Moreno et al.. Briefly, 50 μL of sample were injected in a Shimadzu 10 A HPLC System (Kyoto, Japan), using an UV detector set at 292 nm, an autosampler and a controller (Shimadzu Class LC10, Kyoto, Japan). Elution from the stationary phase (Selectosil C18 column, 5 μm, 250 × 4.6 mm, Phenomenex®, CA, USA) has been carried out at a flow rate of 1.2 mL/min, using a mixture of acetonitrile:potassium phosphate buffer (25 mM, pH 5.3) (40:60) as a mobile phase, during 13 min at 30°C.

parasite motility = test system: parasite motility; parameters: method as in PMID 9421720; details: cited from earlier work
ß-tubulin = test system: ß-tubulin; parameters: method as in PMID 15463312; details: cited from earlier work
[2] = Abomasal fluid pharmacokinetics after intraruminal (i.r.) administration of FLBZ formulations (Experiment 1); type: in vivo; details: sheep, after i.r. FLBZ administration as both formulations
Procedure: (§1) FLBZ-solution (2% w/v) was prepared by dissolution of 2 g of pure FLBZ and 10 g of HPßCD in 100 mL of dionized water (pH 1.2). The pH was adjusted using hydrochloric acid (25 mM). The formulation was shaken during 48 h (40°C) and then was filtrated through a 0.45 μm filter (Whatman, NJ, USA). The final FLBZ concentration was confirmed by HPLC (n = 4). The FLBZ suspension (2% w/v) was performed by addition of 2 g FLBZ pure standard in a suspension of CMC (0.5% w/v) prepared with deionized water (100 mL, pH = 6.0) under shaking (24 h). The FLBZ suspension was vigorously shaken before its administration to sheep.
(§2) Six (6) parasite-free Corriedale male sheep (average weight: 50.6 ± 6.0 kg) were used in this experiment. Animals were kept indoors with commercial balanced food and water ad libitum for two months prior and during the trial. Four (4) animals were surgically fitted with a permanent cannula in the pyloric region of the abomasum following an adaptation of the technique described by Komarek. A 6-week post-surgery recovery period was allowed before starting the pharmacokinetic trials. […]
(§3) Experimental and fortified samples of plasma and abomasal fluid were analyzed for FLBZ, R-FLBZ, H-FLBZ and the internal standard (OBZ) by HPLC following the method described by Moreno et al.. […]

[3] = in vivo
Procedure: as §1, §2, §3

[4] = aqueous solution (HCl/KCl) with 10% HPβCD, pH 1.2, aqueous with cosolvent or surfactant or cyclodextrin
[5] = aqueous solution (HCl/KCl) without HPβCD, pH 1.2, simulated gastric fluid
[6] = aqueous solution (KH2PO4) with 10% HPβCD, pH 7.4, aqueous with cosolvent or surfactant or cyclodextrin

Molecule `COC(=O)Nc1nc2cc(C(=O)c3ccc(F)cc3)ccc2[nH]1` [Flubendazole] has a solubility at 2 weeks [1, 4] of 2250 ± 552 µg/mL (≈ 7190 µM), a solubility at 2 weeks [1, 5] of 29.6 ± 2.8 µg/mL (≈ 94.5 µM) and a solubility at 2 weeks [1, 6] of 164 ± 120 µg/mL (≈ 523 µM). The solubility at 2 weeks ([1]; aqueous solution (KH2PO4) without HPβCD, pH 7.4, aqueous buffer) was 5.8 ± 7 µg/mL (≈ 18.5 µM), the “potency in parasite motility test” value (parasite motility) was “high potency” and the “affinity binding for ß-tubulin” value (ß-tubulin) was “high affinity binding”.

Molecule `CCCSc1ccc2nc(NC(=O)OC)[nH]c2c1` [Albendazole] has a solubility at 2 weeks ([1]; pH 1.2, aqueous with cosolvent or surfactant or cyclodextrin) of 921 ± 347 µg/mL (≈ 3470 µM), a solubility at 2 weeks ([1]; pH 1.2, simulated gastric fluid) of 406 ± 53.4 µg/mL (≈ 1530 µM) and a solubility at 2 weeks ([1]; pH 7.4, aqueous buffer) of 4.6 ± 1.3 µg/mL (≈ 17.3 µM). For the same molecule, the solubility at 2 weeks ([1]; pH 7.4, aqueous with cosolvent or surfactant or cyclodextrin) was 43 ± 8.3 µg/mL (≈ 162 µM) and the “HPßCD-induced solubility increasing effect” value [1] was 1.3 fold.

In the case of `COC(=O)Nc1nc2ccc(C(O)c3ccc(F)cc3)cc2[nH]1` (centres unmarked) [R-FLBZ, reduced flubendazole], the “time of detection in abomasal fluid post-treatment” value [2] is reported as “up to 96 h”.

`COC(=O)Nc1nc2ccc([S+]([O-])c3ccccc3)cc2[nH]1` (centres unmarked) [Oxfendazole, oxfendazole] showed a solubility at 2 weeks [1, 4] of 1900 ± 606 µg/mL (≈ 6030 µM), a solubility at 2 weeks [1, 5] of 420 ± 29.2 µg/mL (≈ 1330 µM) and a solubility at 2 weeks [1, 6] of 348 ± 46.8 µg/mL (≈ 1100 µM). The “HPßCD-induced solubility increasing effect” value [1] was 35 fold.

For `Nc1nc2ccc(C(=O)c3ccc(F)cc3)cc2[nH]1` [H-FLBZ], the “time of detection in plasma (low concentrations)” value [3] was 18 to 48 h.

In the case of `CCC[S+]([O-])c1ccc2[nH]c(NC(=O)OC)nc2c1` (centres unmarked) [Albendazole sulphoxide, albendazole sulphoxide], the highest aqueous solubility ([1]; pH 1.2 (value of Table 1 with HPßCD)) is reported as 6600 ± 1300 µg/mL, the aqueous solubility ([1]; pH 1.2, with HPßCD (10%)) is reported as 6637.7 ± 1370.2 µg/mL (≈ 23600 µM) and the “HPßCD-induced solubility increasing effect” value [1] is reported as 0.7 fold. It also gave an aqueous solubility ([1]; pH 1.2, without HPßCD) of 3818.6 ± 202.1 µg/mL (≈ 13600 µM), an aqueous solubility ([1]; pH 7.4, with HPßCD (10%)) of 871.9 ± 129.3 µg/mL (≈ 3100 µM) and an aqueous solubility ([1]; pH 7.4, without HPßCD) of 83.6 ± 7.6 µg/mL (≈ 297 µM).
